# Data from patent US6737383B1, “Herbicidal oxadiazolidines” (priority 1999, dated 2004).
# Legend:
# [1] = test system: bedstraw; assay: Test B pre/postemergence bedstraw; type: in vivo, Galium aparine
# How it was run: (§1)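 Herbicidal effect was estimated by eye on a ten-point control scale after plants spent twelve to sixteen days in a greenhouse following soil or foliar treatment. Foliar sprays targeted plants at one to four leaves; all doses were formulated in a non-phytotoxic solvent with surfactant.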
# [2] = test system: blackgrass; assay: Test B pre/postemergence blackgrass; type: in vivo, Alopecurus myosuroides
# How it was run: as §1
# [3] = test system: surinam grass; assay: Test B pre/postemergence surinam grass; type: in vivo, Brachiaria decumbens
# How it was run: as §1
# [4] = test system: cocklebur; assay: Test B pre/postemergence cocklebur; type: in vivo, Xanthium strumarium
# How it was run: as §1
# [5] = test system: corn; assay: Test B pre/postemergence corn; type: in vivo, Zea mays
# How it was run: as §1
# [6] = test system: crabgrass; assay: Test B pre/postemergence crabgrass; type: in vivo, Digitaria sanguinalis
# How it was run: as §1
# [7] = test system: giant foxtail; assay: Test B pre/postemergence giant foxtail; type: in vivo, Setaria faberii
# How it was run: as §1
# [8] = test system: pigweed; assay: Test B pre/postemergence pigweed; type: in vivo, Amaranthus retroflexus
# How it was run: as §1
# [9] = test system: soybean; assay: Test B pre/postemergence soybean; type: in vivo, Glycine max
# How it was run: as §1
# [10] = test system: sugar beet; assay: Test B pre/postemergence sugar beet; type: in vivo, Beta vulgaris; settings: for Plant response rating, Sugarbeets: Rate 250 g/ha
# How it was run: as §1
# [11] = test system: velvetleaf; assay: Test B pre/postemergence velvetleaf; type: in vivo, Abutilon theophrasti; settings: for Plant response rating, Velvetleaf: Rate 250 g/ha
# How it was run: as §1
# [12] = test system: wild oat; assay: Test B pre/postemergence wild oat; type: in vivo, Avena fatua; settings: for Plant response rating, Wild oats: Rate 250 g/ha
# How it was run: as §1
# [13] = test system: purple nutsedge; assay: Test B pre/postemergence purple nutsedge; type: in vivo, Cyperus rotundus
# How it was run: as §1
# [14] = test system: rice; assay: Test B flood test rice; type: in vivo, Oryza sativa
# How it was run: (§2)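 Each value is a visual injury score relative to controls, with 10 meaning complete control and 0 no effect. Evaluation took place twelve to sixteen days after the 2-leaf-stage plants were treated and kept in the greenhouse.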
# [15] = test system: smallflower flatsedge; assay: Test B flood test smallflower flatsedge; type: in vivo, Cyperus difformis
# How it was run: as §2
# [16] = test system: bamyardgrass; assay: Test B flood test barnyardgrass; type: in vivo, Echinochloa crus-galli
# How it was run: as §2
# [17] = Postemergence, Rate 62 g/ha, scale 0 to 10, 0 is no effect, 10 is complete control
# [18] = Postemergence, Rate 250 g/ha, scale 0 to 10, 0 no effect, 10 complete control
# [19] = Preemergence, Rate 62 g/ha, scale 0 to 10 (0 no effect, 10 complete control)
# [20] = Preemergence, Rate 125 g/ha, scale 0 to 10 (0 no effect, 10 complete control)
# [21] = Preemergence, Rate 250 g/ha, scale of 0 to 10 where 0 is no effect and 10 is complete control
# [22] = Preemergence, Rate 500 g/ha, scale 0 to 10 (0 no effect, 10 complete control)
# [23] = Rate 125 g/ha, Postemergence, scale 0 to 10, 0 no effect, 10 complete control
# [24] = Postemergence, Rate 125 g/ha, scale of 0 to 10 where 0 is no effect and 10 is complete control
# [25] = Rate 62 g/ha, Postemergence, scale of 0 to 10 where 0 is no effect and 10 is complete control
# [26] = Rate 500 g/ha, Postemergence, scale 0 to 10, 0 no effect, 10 complete control
# [27] = Rate 250 g/ha, Postemergence, scale 0 to 10, 0 is no effect, 10 is complete control
# [28] = Preemergence, Rate 125 g/ha, 0 is no effect, 10 is complete control
# [29] = Preemergence, scale of 0 to 10 where 0 is no effect and 10 is complete control
# [30] = Postemergence, scale 0 to 10, 0 is no effect, 10 is complete control
# [31] = Postemergence (flood test species), Rate 125 g/ha, scale of 0 to 10 where 0 is no effect and 10 is complete control
# [32] = Rate 62 g/ha, Postemergence section, flood test species, scale of 0 to 10 where 0 is no effect and 10 is complete control
# [33] = Rate 250 g/ha, Postemergence (flood test), scale 0 to 10, 0 is no effect, 10 is complete control
# [34] = Rate 250 g/ha, headed Pre-emergence (flood test species), scale 0 to 10 (0 no effect, 10 complete control)
# [35] = Rate 500 g/ha, headed Pre-emergence (flood test species), scale 0 to 10 (0 no effect, 10 complete control)
# [36] = Rate 500 g/ha, listed under Postemergence (flood test species), scale 0 to 10, 0 no effect, 10 complete control
# [37] = Rate 1000 g/ha, Pre-emergence (as headed), scale 0 to 10
# [38] = Rate 2000 g/ha, Pre-emergence (as headed), scale 0 to 10
structure (smiles),measurement,setting,value
CCn1c(=O)on(C(=O)N(c2ccccc2)C(C)C)c1=O [Compound 117],Bedstraw plant response rating,[1]; [17],0
same,Bedstraw plant response rating,[1]; [18],2
same,Bedstraw plant response rating,[1]; [19],0
same,"Plant response rating, Bedstraw",[1]; [20],0
same,"Plant response rating, Bedstraw",[1]; [21],0
same,Bedstraw plant response rating,[1]; [22],0
same,Bedstraw plant response rating,[1]; [23],0
same,Blackgrass plant response rating,[2]; [24],9
same,Blackgrass plant response rating,[2]; [18],9
same,Blackgrass plant response rating,[2]; [19],8
same,"Plant response rating, Blackgrass",[2]; [20],8
same,"Plant response rating, Blackgrass",[2]; [21],10
same,Blackgrass plant response rating,[2]; [22],10
same,Blackgrass plant response rating,[2]; [25],8
same,Blackgrass plant response rating,[2]; [26],9
same,B. signalgrass plant response rating,[3]; [17],6
same,B. signalgrass plant response rating,[3]; [18],9
same,B. signalgrass plant response rating,[3]; [19],6
same,"Plant response rating, B. signalgrass",[3]; [20],9
same,"Plant response rating, B. signalgrass",[3]; [21],9
same,B. signalgrass plant response rating,[3]; [22],10
same,B. signalgrass plant response rating,[3]; [23],8
same,B. signalgrass plant response rating,"[3]; Rate 500 g/ha, Postemergence, scale of 0 to 10 where 0 is no effect and 10 is complete control",9
same,Cocklebur plant response rating,[4]; [24],0
same,Cocklebur plant response rating,[4]; [18],0
same,Cocklebur plant response rating,[4]; [19],0
same,"Plant response rating, Cocklebur",[4]; [20],0
same,"Plant response rating, Cocklebur",[4]; [21],0
same,Cocklebur plant response rating,[4]; [22],0
same,Cocklebur plant response rating,[4]; [25],0
same,Cocklebur plant response rating,[4]; [26],1
same,Corn plant response rating,[5]; [24],5
same,Corn plant response rating,[5]; [18],6
same,Corn plant response rating,[5]; [19],0
same,"Plant response rating, Corn",[5]; [20],2
same,"Plant response rating, Corn",[5]; [21],7
same,Corn plant response rating,[5]; [22],9
same,Corn plant response rating,[5]; [25],0
same,Corn plant response rating,[5]; [26],7
same,Crabgrass plant response rating,[6]; [24],9
same,Crabgrass plant response rating,[6]; [18],9
same,Crabgrass plant response rating,[6]; [19],9
same,"Plant response rating, Crabgrass",[6]; [20],10
same,"Plant response rating, Crabgrass",[6]; [21],10
same,Crabgrass plant response rating,[6]; [22],10
same,Crabgrass plant response rating,[6]; [25],9
same,Crabgrass plant response rating,[6]; [26],9
same,Giant foxtail plant response rating,[7]; [24],9
same,Giant foxtail plant response rating,[7]; [18],9
same,Giant foxtail plant response rating,[7]; [19],10
same,"Plant response rating, Giant foxtail",[7]; [20],10
same,"Plant response rating, Giant foxtail",[7]; [21],10
same,Giant foxtail plant response rating,[7]; [22],10
same,Giant foxtail plant response rating,[7]; [25],9
same,Giant foxtail plant response rating,[7]; [26],9
same,Redroot pigweed plant response rating,[8]; [24],0
same,Redroot pigweed plant response rating,[8]; [19],9
same,"Plant response rating, Redroot pigweed",[8]; [20],10
same,"Plant response rating, Redroot pigweed",[8]; [21],10
same,Redroot pigweed plant response rating,[8]; [22],10
same,Redroot pigweed plant response rating,[8]; [25],0
same,"Plant response rating, Redroot pigweed",[8]; [27],0
same,Redroot pigweed plant response rating,[8]; [26],6
same,Soybean plant response rating,[9]; [24],5
same,Soybean plant response rating,[9]; [19],0
same,"Plant response rating, Soybean",[9]; [20],8
same,"Plant response rating, Soybean",[9]; [21],8
same,Soybean plant response rating,[9]; [22],9
same,Soybean plant response rating,[9]; [25],2
same,"Plant response rating, Soybean",[9]; [27],5
same,Soybean plant response rating,[9]; [26],7
same,Sugarbeets plant response rating,[10]; [24],0
same,Sugarbeets plant response rating,[10]; [19],0
same,Sugarbeets plant response rating (0 to 10 scale),[10]; [28],8
same,"Plant response rating, Sugarbeets",[10]; [29],9
same,Sugarbeets plant response rating,[10]; [22],10
same,Sugarbeets plant response rating,[10]; [25],0
same,"Plant response rating, Sugarbeets",[10]; [30],3
same,Sugarbeets plant response rating,[10]; [26],7
same,Velvetleaf plant response rating,[11]; [24],3
same,Velvetleaf plant response rating,[11]; [19],6
same,Velvetleaf plant response rating (0 to 10 scale),[11]; [28],8
same,"Plant response rating, Velvetleaf",[11]; [29],10
same,Velvetleaf plant response rating,[11]; [22],10
same,Velvetleaf plant response rating,[11]; [25],0
same,"Plant response rating, Velvetleaf",[11]; [30],6
same,Velvetleaf plant response rating,[11]; [26],8
same,Wild oats plant response rating,[12]; [24],3
same,Wild oats plant response rating,[12]; [19],3
same,Wild oats plant response rating (0 to 10 scale),[12]; [28],6
same,"Plant response rating, Wild oats",[12]; [29],10
same,Wild oats plant response rating,[12]; [22],10
same,Wild oats plant response rating,[12]; [25],0
same,"Plant response rating, Wild oats",[12]; [30],4
same,Wild oats plant response rating,[12]; [26],8
same,Nutsedge plant response rating,[13]; [24],7
same,Nutsedge plant response rating,[13]; [18],7
same,Nutsedge plant response rating,[13]; [19],0
same,"Plant response rating, Nutsedge",[13]; [20],0
same,"Plant response rating, Nutsedge",[13]; [21],3
same,Nutsedge plant response rating,[13]; [22],7
same,Nutsedge plant response rating,[13]; [25],2
same,Nutsedge plant response rating,[13]; [26],7
same,Rice plant response rating,[14]; [31],0
same,Rice plant response rating,[14]; [32],0
same,"Plant response rating, Rice",[14]; [33],0
same,Rice plant response rating,[14]; [34],0
same,"Plant response rating, Rice",[14]; [35],0
same,Rice plant response rating,[14]; [36],0
same,Rice plant response rating,[14]; [37],0
same,Rice plant response rating,[14]; [38],0
same,S. Flatsedge plant response rating,[15]; [31],0
same,S. Flatsedge plant response rating,"[15]; Pre-emergence, Rate 1000 g/ha, scale 0 to 10 (0 no effect, 10 complete control)",0
same,S. Flatsedge plant response rating,[15]; [32],0
same,"Plant response rating, S. Flatsedge",[15]; [33],0
same,S. Flatsedge plant response rating,[15]; [34],0
same,"Plant response rating, S. Flatsedge",[15]; [35],0
same,S. Flatsedge plant response rating,[15]; [36],0
same,S. Flatsedge plant response rating,[15]; [38],4
same,Barnyardgrass plant response rating,[16]; [17],0
same,Barnyardgrass plant response rating,"[16]; Rate 125 g/ha, Postemergence section (flood test species), scale 0 to 10, 0 no effect, 10 complete control",0
same,Barnyardgrass plant response rating,[16]; [34],0
same,"Plant response rating, Barnyardgrass",[16]; [35],0
same,Barnyardgrass plant response rating,[16]; [36],3
same,Barnyardgrass plant response rating,[16]; [37],0
same,Barnyardgrass plant response rating,"[16]; Rate 2000 g/ha, Pre-emergence (as headed), scale 0 to 10, 0 no effect, 10 complete control",3
same,Barnyardgrass plant response rating,"[16]; flood test, listed under Postemergence, Rate 250 g/ha, scale 0 to 10, 0 no effect, 10 complete control",2
